Consider 20 molecules from PubChem BioAssay AID330 (DTP/NCI, 2004).

Where “and” joins values, the source holds several entries; their conditions need not be identical. Identical values can stand only once. Inconclusive results and toxic doses are left out.

The subject of this assay is P388 leukemia ip, CD2F1 mice, survival T/C. Nature of the assay: NCI In Vivo Anticancer Drug Screen. Data for tumor model P388 Leukemia (intraperitoneal) in CD2F1 (CDF1) mice. The following applies: endpoint: median survival time, higher = longer survival. The gist of the method: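 Mice carrying the transplanted tumor received test compound or vehicle. Survival was recorded in each group, and the value is the treated-group measurement divided by that of the vehicle-treated control group.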

Setting [1] is: dose: 50.0 mg/kg/injection, schedule: Q01DX005 (ip), vehicle: Klucel (hydroxypropylcellulose) (HPC).
[2] abbreviates: dose: 100.0 mg/kg/injection, schedule: Q01DX005 (ip), vehicle: Klucel (hydroxypropylcellulose) (HPC).
[3] abbreviates: dose: 50.0 mg/kg/injection, schedule: Q01DX009 (ip), vehicle: saline.
Setting [4] is: dose: 100.0 mg/kg/injection, schedule: Q01DX009 (ip), vehicle: saline.
Setting [5] is: dose: 200.0 mg/kg/injection, schedule: Q01DX009 (ip), vehicle: saline.
[6] abbreviates: dose: 25.0 mg/kg/injection, schedule: Q01DX009 (ip), vehicle: Klucel (hydroxypropylcellulose) (HPC).
Setting [7] is: dose: 50.0 mg/kg/injection, schedule: Q01DX009 (ip), vehicle: Klucel (hydroxypropylcellulose) (HPC).
The mark [8] stands for this setting: dose: 100.0 mg/kg/injection, schedule: Q01DX009 (ip), vehicle: Klucel (hydroxypropylcellulose) (HPC).
Setting [9] is: dose: 200.0 mg/kg/injection, schedule: Q01DX009 (ip), vehicle: Klucel (hydroxypropylcellulose) (HPC).
Setting [10] is: dose: 50.0 mg/kg/injection, schedule: Q01DX009 (ip), vehicle: saline with Tween-80.

Regarding `Cc1ccc(S(=O)(=O)Nc2ccccc2N(CCNCCOS(=O)(=O)c2ccc(C)cc2)S(=O)(=O)c2ccc(C)cc2)cc1`, the T/C is, setting by setting: (dose: 100.0 mg/kg/injection, schedule: Q04DX002 (ip), vehicle: saline with Tween-80) 96 % of control; (dose: 200.0 mg/kg/injection, schedule: Q04DX002 (ip), vehicle: saline with Tween-80) 98 % of control; (dose: 400.0 mg/kg/injection, schedule: Q04DX002 (ip), vehicle: saline with Tween-80) 91 % of control.

Consider `CCOC(=O)c1ccc(NC(=O)Nc2scc[n+]2C)cc1`, for which the T/C reads like this: (dose: 12.5 mg/kg/injection, schedule: Q01DX009 (ip), vehicle: distilled water + Tween-80) 93 % of control; (dose: 25.0 mg/kg/injection, schedule: Q01DX009 (ip), vehicle: distilled water + Tween-80) 102 % of control; (dose: 50.0 mg/kg/injection, schedule: Q01DX009 (ip), vehicle: distilled water + Tween-80) 108 % of control; (dose: 100.0 mg/kg/injection, schedule: Q01DX009 (ip), vehicle: distilled water + Tween-80) 100 % of control; (dose: 200.0 mg/kg/injection, schedule: Q01DX009 (ip), vehicle: distilled water + Tween-80) 90 % of control.

Regarding `Cc1[nH]n(-c2cc(S(=O)(=O)O)ccc2Cl)c(=O)c1N=Nc1ccc(C(=O)Nc2ccc(S(=O)(=O)O)cc2)cc1`, the T/C by setting is: under setting [1], 99 % of control; under setting [2], 92 % of control; (dose: 200.0 mg/kg/injection, schedule: Q01DX005 (ip), vehicle: Klucel (hydroxypropylcellulose) (HPC)) 99 % of control.

In the case of `O=C(Nc1cccc(C(F)(F)F)c1)Oc1ccc(Cl)cc1C(=O)c1ccccc1`, the T/C runs as follows: under setting [3], 97 % of control; under setting [4], 92 % of control; under setting [5], 96 % of control.

Take `CCC(c1ccc(OC)cc1)C(NCC(=O)N/N=C1\C[C@@H]2[C@H](CC[C@]3(C)[C@@H](O)CC[C@@H]23)c2c(C)cc(O)cc21)c1ccc(OC)cc1` (some centres not stated): the T/C is, setting by setting: (dose: 100.0 mg/kg/injection, schedule: Q01DX001 (ip), vehicle: saline with Tween-80) 106 % of control; (dose: 200.0 mg/kg/injection, schedule: Q01DX001 (ip), vehicle: saline with Tween-80) 107 % of control; (dose: 400.0 mg/kg/injection, schedule: Q01DX001 (ip), vehicle: saline with Tween-80) 101 % of control.

With `COC(=O)c1cc(=O)n(-c2ccccc2C)c(SC)n1`, the T/C was 105 % of control (dose: 100.0 mg/kg/injection, schedule: Q04DX002 (ip), vehicle: Klucel (hydroxypropylcellulose) (HPC)) and 105 % of control (dose: 200.0 mg/kg/injection, schedule: Q04DX002 (ip), vehicle: Klucel (hydroxypropylcellulose) (HPC)).

Regarding `O=S(=O)(Nc1ccccn1)c1ccc(NCc2c3ccccc3nc3cc(Cl)ccc23)cc1`, the T/C is 97 % of control (dose: 60.0 mg/kg/injection, schedule: Q01DX005 (ip), vehicle: saline with Tween-80); 98 % of control (dose: 120.0 mg/kg/injection, schedule: Q01DX005 (ip), vehicle: saline with Tween-80); 96 % of control (dose: 240.0 mg/kg/injection, schedule: Q01DX005 (ip), vehicle: saline with Tween-80).

As for `O=c1[nH]c2c(c(=O)[nH]1)CCCCCC2`, the T/C under setting [6] was 102 % of control and 103 % of control; the T/C under setting [7] is 99 % of control and 103 % of control; the T/C under setting [8] was 91 % of control and 97 % of control; the T/C under setting [9] was 102 % of control and 94 % of control.

As to `CN(C)c1ncnc2c1cnn2C`, the T/C by setting is: under setting [10], 109 % of control; (dose: 50.0 mg/kg/injection, schedule: Q04DX003 (ip), vehicle: saline sonified) 100 % of control; (dose: 100.0 mg/kg/injection, schedule: Q04DX003 (ip), vehicle: saline sonified) 100 % of control; (dose: 200.0 mg/kg/injection, schedule: Q04DX003 (ip), vehicle: saline sonified) 109 % of control.

For `CSC1CC(C)(O)Cc2cc3c(c(O)c21)C(=O)c1c(O)cc2c(c1C3=O)OC1OC2(C)C(O)C(N(C)C)C1O` (configuration not stated), the T/C (dose: 16.0 mg/kg/injection, schedule: Q01DX009 (ip), vehicle: other) was 100 % of control.

Turning to `C=CCNC(=S)/N=C1\N=S(C)(=O)c2ccccc21` (configuration not stated), the T/C is, setting by setting: under setting [7], 96 % of control; under setting [8], 94 % of control; under setting [9], 102 % of control.

For the molecule `COc1cc2ccnc(C3(O)CCN(C)CC3)c2cc1OC`, the T/C runs as follows: (dose: 6.25 mg/kg/injection, schedule: Q01DX009 (ip), vehicle: Klucel (hydroxypropylcellulose) (HPC)) 94 % of control; (dose: 12.5 mg/kg/injection, schedule: Q01DX009 (ip), vehicle: Klucel (hydroxypropylcellulose) (HPC)) 98 % of control; under setting [6], 93 % of control; (dose: 50.0 mg/kg/injection, schedule: Q01DX001 (ip), vehicle: Klucel (hydroxypropylcellulose) (HPC)) 102 % of control; (dose: 100.0 mg/kg/injection, schedule: Q01DX001 (ip), vehicle: Klucel (hydroxypropylcellulose) (HPC)) 105 % of control; (dose: 200.0 mg/kg/injection, schedule: Q01DX001 (ip), vehicle: Klucel (hydroxypropylcellulose) (HPC)) 97 % of control.

For `COc1cc(C/C(=N/N=C(N)N)C(=O)O)cc(OC)c1OC`, the T/C reads like this: (dose: 100.0 mg/kg/injection, schedule: Q01DX001 (ip), vehicle: saline) 99 % of control; (dose: 200.0 mg/kg/injection, schedule: Q01DX001 (ip), vehicle: saline) 100 % of control; (dose: 400.0 mg/kg/injection, schedule: Q01DX001 (ip), vehicle: saline) 100 % of control.

As for `N#Cc1cnn(-c2cc(Cl)ccc2Cl)c1N`, the T/C by setting is: under setting [10], 99 % of control and 95 % of control and 98 % of control; (dose: 100.0 mg/kg/injection, schedule: Q01DX009 (ip), vehicle: saline with Tween-80) 101 % of control and 103 % of control and 92 % of control; (dose: 200.0 mg/kg/injection, schedule: Q01DX009 (ip), vehicle: saline with Tween-80) 104 % of control and 105 % of control and 123 % of control.

As to `O=C1NC(=O)C(F)(F)C(O)N1` (configuration not stated), the T/C (dose: 75.0 mg/kg/injection, schedule: Q04DX002 (ip), vehicle: saline) is 109 % of control; the T/C (dose: 100.0 mg/kg/injection, schedule: Q01DX009 (ip), vehicle: saline sonified) is 154 % of control; the T/C (dose: 150.0 mg/kg/injection, schedule: Q01DX009 (ip), vehicle: saline sonified) was 172 % of control; the T/C (dose: 150.0 mg/kg/injection, schedule: Q04DX002 (ip), vehicle: saline) was 109 % of control; the T/C (dose: 220.0 mg/kg/injection, schedule: Q01DX009 (ip), vehicle: saline sonified) is 177 % of control; the T/C (dose: 300.0 mg/kg/injection, schedule: Q04DX002 (ip), vehicle: saline) is 116 % of control. In addition, the T/C reads like this: (dose: 600.0 mg/kg/injection, schedule: Q04DX002 (ip), vehicle: saline) 106 % of control; (dose: 1200.0 mg/kg/injection, schedule: Q04DX002 (ip), vehicle: saline) 104 % of control.

As to `Cn1c(CC(O)c2nc3ccccc3n2C)nc2ccccc21` (configuration not stated), the T/C is 98 % of control under setting [7]; 114 % of control under setting [3]; 105 % of control under setting [8]; 112 % of control under setting [4]; 98 % of control under setting [9]; 107 % of control under setting [5].

For `O=C1C=CC(=O)C2(CO)OC12` (configuration not stated), the T/C by setting is: (dose: 1.88 mg/kg/injection, schedule: Q04DX002 (ip), vehicle: saline with Tween-80) 95 % of control; (dose: 3.75 mg/kg/injection, schedule: Q04DX002 (ip), vehicle: saline with Tween-80) 102 % of control.

Turning to `COc1ccc(C(OCC2CC3C=CC2C3)OCC2CC3C=CC2C3)cc1` (configuration not stated), the T/C is 110 % of control (dose: 12.5 mg/kg/injection, schedule: Q01DX009 (ip), vehicle: other); 111 % of control (dose: 25.0 mg/kg/injection, schedule: Q01DX009 (ip), vehicle: other); 105 % of control (dose: 50.0 mg/kg/injection, schedule: Q01DX009 (ip), vehicle: other); 114 % of control (dose: 100.0 mg/kg/injection, schedule: Q01DX009 (ip), vehicle: other); 114 % of control (dose: 200.0 mg/kg/injection, schedule: Q01DX009 (ip), vehicle: other).

Consider `CCCCOCCOCCOCCOCCCN1C(=O)C2C3C=CC(C3)C2C1=O` (configuration not stated), for which the T/C is 97 % of control under setting [1] and 100 % of control under setting [2].

As for `COc1ccc(C2OC3=C(Nc4ccc([N+](=O)[O-])cc4N3)C2=O)cc1OC` (configuration not stated), the T/C runs as follows: (dose: 60.0 mg/kg/injection, schedule: Q01DX005 (ip), vehicle: Klucel (hydroxypropylcellulose) (HPC)) 89 % of control; (dose: 120.0 mg/kg/injection, schedule: Q01DX005 (ip), vehicle: Klucel (hydroxypropylcellulose) (HPC)) 93 % of control; (dose: 240.0 mg/kg/injection, schedule: Q01DX005 (ip), vehicle: Klucel (hydroxypropylcellulose) (HPC)) 89 % of control.
